From patent US20230263822A1, “MODULATION OF FACTOR 11 EXPRESSION” (Ionis Pharmaceuticals, Inc., priority 2008, published 2023)

Experiments:
murine Factor 11 protein = test: Factor 11 protein, F11 assay based on clotting time (Example 10); format: in vivo; settings: BALB/c mice; for % Inhibition of murine Factor 11 protein: plasma, relative to PBS control
Procedure: BALB/c mice were injected with 5 mg/kg, 10 mg/kg, 25 mg/kg, or 50 mg/kg of ISIS 404057 or ISIS 404071 twice a week for 3 weeks. A control group of mice was injected with phosphate buffered saline (PBS) twice a week for 3 weeks. Mice were sacrificed 5 days after receiving the last dose. Whole liver was harvested for RNA analysis and plasma was collected for clotting analysis (PT and aPTT) and protein analysis.
Factor 11 proenzyme from the plasma of mice treated with ISIS 404071, was measured using a F11 assay based on clotting time. Clotting times were determined in duplicate with a ST4 semi-automated coagulation instrument (Diagnostica Stago, NJ). Thirty μl of citrated sample plasma diluted 1/20 in HEPES-NaCl buffer with BSA was incubated with 30 μl aPTT reagent (Platelet Factor 3 reagent plus particulate activator) and 30 μl of citrated plasma deficient of Factor 11 (human congential, George King Bio-Medical Inc.) at 37° C. to initiate clotting. Results were interpolated on a standard curve of serially diluted citrated control murine plasma.
Results are presented as percent inhibition of Factor 11, relative to PBS control.

Factor 11 mRNA = Factor 11 mRNA in liver, FeCl3 induced venous thrombosis model vs warfarin (Example 11); format: in vivo, BALB/c mice; settings: for % inhibition of Factor 11 mRNA in liver relative to PBS control: FeCl3 VT model
Procedure: Two control groups of BALB/c mice were treated with PBS, administered subcutaneously twice a week for 3 weeks. Two days after the last dose of PBS, mice in both groups were anesthetized with 150 mg/kg ketamine mixed with 10 mg/kg xylazine administered by intraperitoneal injection. Thrombus formation was induced with FeCl3 in all groups of mice except the first control group.
In mice undergoing FeCl3 treatment, thrombus formation was induced by applying a piece of filter paper (2×4 mm) pre-saturated with 10% FeCl3 solution directly on the vena cava. After 3 minutes of exposure, the filter paper was removed. Thirty minutes after the filter paper application, a fixed length of the vein containing the thrombus was dissected out for platelet analysis. Liver was collected for RNA analysis.
RNA was extracted from liver tissue for real-time PCR analysis of Factor 11.

[1] = system: mesenteric vein thrombosis; test: Mesenteric vein thrombosis, intravital microscopy (Example 22); format: in vivo; settings: C57BL/6 mice, 50 mg/kg s.c. twice a week for three weeks
Procedure: In a first cohort, ISIS 404071 was administered subcutaneously to C57BL/6 mice twice a week for three weeks at a dose of 50 mg/kg. In a second cohort, a control oligonucleotide, ISIS 405277 ([…]; antisense oligonucleotide for Factor 2), incorporated herein as SEQ ID NO: 12 was administered subcutaneously to C57Bl/6 mice twice a week for three weeks at a dose of 50 mg/kg.
Blood was collected from the retro-orbital venous plexus of naïve C57BL/6 mice by puncture and collected in polypropylene tubes containing 300 μl of heparin (30 U/ml). Platelet rich plasma (PRP) was obtained by centrifugation at 1000 rpm for 5 min. The PRP was transferred to fresh tubes containing 2 μl of Prostaglandin I2 (PGI2) (2 μg/ml) and incubated at 37° C. for 5 min. After centrifugation at 2600 rpm, pellets were resuspended in 1 ml modified Tyrode's-HEPES buffer (137 mM NaCl, 0.3 mM Na2HPO4, 2 mM KCl, 12 mM NaHCO3, 5 mM HEPES, 5 mM glucose, 0.35% BSA, pH 7.2) containing 2 μl of PGI2 and incubated at 37° C. for 5 min. The suspended pellet was centrifuged at 2600 rpm for 5 min. To remove PGI2, the washing step was repeated twice and platelets were fluorescently labeled with calcein AM 2.5 μg/mL (Molecular Probes, Eugene, Oreg.) for 10 min at room temperature.
Fluorescently-labeled platelets were injected intravenously in ISIS 404071 treated and control oligonucleotide treated C57BL/6 mice. […] The exposed mesentery was kept moist throughout the experiment by periodic superfusion with warmed (37° C.) PBS. The mesentery was transluminated with a 12V, 100 W, DC stabilized source. Veins were visualized using a Zeiss (Germany) Axiovert 135 inverted microscope (Objective 32X) connected to an SVHS video recorder (AG-6730; Panasonic, Tokyo, Japan) using a CCD video camera (Hamamatsu Photonic Systems, Hamamatsu City, Japan). Centerline erythrocyte velocity (Vrbc) was measured using an optical Doppler velocimeter (Microcirculation Research Institute, Texas A&M College of Medicine, College Station, Tex.). Venular shear rate (τ) was calculated based on Poiseuille's Law for a newtonian fluid, τ=8(Vmean/Dv), where Dv is the diameter of the venule and Vmean is estimated from the measured Vrbc using the empirical correlation Vmean=Vrbc/1.6.
Mesenteric vein thrombosis was performed two days after the last antisense oligonucleotide injection. Thrombosis was induced by applying Whatman paper soaked in a 10% FeCl3 solution for 5 minutes on the mesenteric vein. The vein was monitored for 40 minutes, or until occlusion. The elapsed time before the first thrombus 30-50 μm in diameter and the elapsed time before blood stopped flowing for 30 seconds were observed.

[2] = Collagenase-induced intracerebral hemorrhage model: hemorrhage volume, neurologic deficit score, mortality (Example 25); format: in vivo, BALB/c mice
Procedure: In a first cohort, ISIS 404071 was administered subcutaneously to BALB/c mice twice a week for two weeks at a dose 40 mg/kg. […] In a third cohort, ISIS 421208 ([…], 8 mismatches to murine Factor 11, incorporated herein as SEQ ID NO: 14) was administered subcutaneously to BALB/c mice twice a week for two weeks at a dose 40 mg/kg. In a fourth cohort, PBS was administered to BALB/c mice twice a week for two weeks.
Two days after receiving their final dose, all mice in all cohorts were anesthetized with […] of avertin. Next, the mice were injected at −1 mm AP, 1 mm R ML, −4 mm DV from bregma flat skull with a 10 μL Hamilton syringe containing 0.075 U collagenase (150 U/mL). Collagenase was delivered over 5 minutes and the needle was kept in place for an additional 5 minutes to prevent reflux. The mice were then analyzed for hemorrhagic size, neurologic deficit score, and mortality.
Table 37 presents the hemorrhage volume detected in mice after collagenase treatment, Table 38 presents the neurologic deficit score of the mice, and Table 39 presents the mortality rate of the mice. Neurological deficit is measured by a standard scoring system where no deficiency is zero and severe deficit is five.

[3] = collagenase-induced intracerebral hemorrhage, 40 mg/kg twice a week for two weeks

## ISIS 404071: antisense oligonucleotide targeted to murine Factor 11 mRNA, TGGTAATCCACTTTCAGAGG, target start site 869 (chemistry not given here)
Murine Factor 11 protein; 5-50 mg/kg
  Factor 11 protein: significant dose-dependent reduction of Factor 11 protein
Murine Factor 11 protein; 5 mg/kg
  % Inhibition of murine Factor 11 protein: 39%
Murine Factor 11 protein; 10 mg/kg
  % Inhibition of murine Factor 11 protein: 67%
Murine Factor 11 protein; 25 mg/kg
  % Inhibition of murine Factor 11 protein: 89%
Murine Factor 11 protein; 50 mg/kg
  % Inhibition of murine Factor 11 protein: 96%
Factor 11 mRNA; FeCl3 induced VT model, ISIS 404071 1.25-40 mg/kg s.c. twice a week 3 weeks, warfarin 0.5-5 mg/kg daily 6 days
  Factor 11 mRNA in liver vs PBS control: significant dose-dependent reduction of Factor 11 mRNA
Factor 11 mRNA; ISIS 404071 1.25 mg/kg subcutaneously twice a week for 3 weeks
  % inhibition of Factor 11 mRNA in liver relative to PBS control: 0%
Factor 11 mRNA; ISIS 404071 5 mg/kg subcutaneously twice a week for 3 weeks
  % inhibition of Factor 11 mRNA in liver relative to PBS control: 62%
Factor 11 mRNA; ISIS 404071 10 mg/kg subcutaneously twice a week for 3 weeks
  % inhibition of Factor 11 mRNA in liver relative to PBS control: 78%
Factor 11 mRNA; ISIS 404071 20 mg/kg subcutaneously twice a week for 3 weeks
  % inhibition of Factor 11 mRNA in liver relative to PBS control: 92%
Factor 11 mRNA; ISIS 404071 40 mg/kg subcutaneously twice a week for 3 weeks
  % inhibition of Factor 11 mRNA in liver relative to PBS control: 96%
[1]
  occlusion of veins within 40 minutes after injury: did not occlude
[1]; 10% FeCl3 on mesenteric vein
  time of occlusion (occlusive thrombi): 29.5 min
  time of thrombus formation (30 μm in diameter): 14.8 ± 1.7 min
[2]; 40 mg/kg s.c. twice a week for two weeks
  Hemorrhagic volume after collagenase treatment: 38 mm^3
[2]; 40 mg/kg s.c. twice a week for two weeks, score zero (no deficiency) to five (severe deficit)
  Neurologic Deficit Score after collagenase treatment: 3.8
[2]; ISIS oligonucleotides 40 mg/kg s.c., warfarin 2 mg/kg intraperitoneally, twice a week for two weeks
  % mortality after collagenase treatment: 20%
[2]; [3]
  hemorrhagic size: did not have a significant effect
  mortality: did not have a significant effect
  neurologic deficit score: did not have a significant effect
